Patent US20240246903A1, “INDANONE AND TETRALONEKETO OR HYDROXYL OXIMES AS CANCEL THERAPEUTICS” (Board of Regents, The University of Texas System, priority 2021, published 2024)

System: GBM cells
Test: GBM cell viability (MTT assay)
Type: cell-based
Settings: FIG. 3, read-out: concentration that reduces cell viability by 50%
Method: To assess, the antitumor activity of the new ERβ agonist compounds, GBM cells were assessed for viability using a commercially available MTT assay. Briefly, the assay determines the number of viable cells in culture by […], which indicates the presence of metabolically active cells. Previously described agonists such as LY was able to reduce viability by 50% with concentration of 10 μM or greater. The new compounds described in this disclosure have higher potency than existing compounds and some reduce cell viability by 50% at concentrations even at 3 μM (FIG. 3).

In the case of `Oc1ccc([C@@H]2Oc3ccc(O)cc3[C@@H]3CCC[C@@H]32)cc1` [LY, (3aS,4R,9bR)-4-(4-hydroxyphenyl)-1,2,3,3a,4,9b-hexahydrocyclopenta[c]chromen-8-ol], the IC50 is reported as no less than 10 µM.
